From patent publication US11173145B2, “Compounds useful as inhibitors of indoleamine 2,3-dioxygenase and/or tryptophan dioxygenase” (Board of Regents, The University of Texas System, priority 2017, dated 2021)

Each compound was assayed against T1, IDO1 (Homo sapiens, UniProt P14902) (assay: IDO1 cell-based assay (HeLa cells, IFNgamma-induced, N-formylkynurenine/L-tryptophan by RFMS)). Conditions: 10 ng/mL IFNgamma, 24 hours.
T1 construct: endogenous in cells; host or cells: HeLa cells (ATCC), IFNgamma-induced
Experimental: HeLa cells were obtained from the American Type Culture Collection (ATCC) and maintained in DMEM media containing 10% FBS. Cells (7,000/well) were seeded onto a 384 well plate in 50 μL of media and incubated at 37° C., 5% CO2 overnight. Cell media was aspirated, fresh media containing 10 ng/mL IFNgamma was added, and cells were incubated in absence or presence of various concentrations of test compound (final 0.5% DMSO) for 24 hours. Aliquots of the cell conditioned media were removed from the cell plate, and mixed with an equal volume of 200 mM ZnSO4 to precipitate media containing proteins. Two volumes of acetonitrile were added, mixed, and samples were then centrifuged at 2250G for 20 minutes at 4° C. Aliquots of the supernatant were diluted 1:10 in 0.1% formic acid containing 3 μM of deuterated Tryptophan as an internal standard.
Samples were analyzed via RFMS to quantify N-Formyl Kynurenine (AUC) and L-tryptophan (AUC). A C18 cartridge was used with mobile phases of 0.1% Formic Acid and 80% ACN/0.1% Formic Acid under isocratic conditions. Dose-response curves were analyzed using IC50 regression curve fitting (GeneData Screener). […] Cell viability was also assessed using the Cell Titer Glo Kit (Promega) following manufacturer recommendation.

T1 sequence (P14902 whole entry): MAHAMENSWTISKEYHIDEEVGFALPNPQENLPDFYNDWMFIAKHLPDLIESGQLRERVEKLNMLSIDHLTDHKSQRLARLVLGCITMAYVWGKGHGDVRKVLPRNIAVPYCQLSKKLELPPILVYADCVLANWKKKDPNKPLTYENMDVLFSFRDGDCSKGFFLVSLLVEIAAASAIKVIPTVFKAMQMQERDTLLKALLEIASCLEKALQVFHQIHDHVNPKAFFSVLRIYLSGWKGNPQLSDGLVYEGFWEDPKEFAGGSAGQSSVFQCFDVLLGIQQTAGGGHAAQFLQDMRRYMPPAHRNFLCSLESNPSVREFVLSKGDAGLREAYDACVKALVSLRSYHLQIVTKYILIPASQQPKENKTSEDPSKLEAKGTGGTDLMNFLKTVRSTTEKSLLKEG

Row | SMILES | IC50 [nM]
1 | CC[C@@H](NC(=O)c1ccc(C#N)cc1)[C@H]1[C@@H]2C[C@@H](n3nnc(C(=O)OC)c3C(=O)OC)C[C@@H]21 [Compound 300, dimethyl 1-((1R,3S,5S,6r)-6-((R)-1-(4-cyanobenzamido)propyl)bicyclo[3.1.0]hexan-3-yl)-1H-1,2,3-triazole-4,5-dicarboxylate] | < 200
2 | CC(NC(=O)c1ccc(C#N)cc1)[C@H]1[C@@H]2C[C@@H](Oc3cnnc4ccccc34)C[C@@H]21 (stereo partly drawn) [Compound 135, N-(1-((1R,3s,5S,6r)-3-(cinnolin-4-yloxy)bicyclo[3.1.0]hexan-6-yl)ethyl)-4-cyanobenzamide] | 200 to 2000
3 | CC[C@@H](NC(=O)c1cccc(F)c1)[C@H]1[C@@H]2C[C@@H](n3cnc4cc(F)c(F)cc43)C[C@@H]21 [Compound 312, N-((R)-1-((1R,3S,5S,6r)-3-(5,6-difluoro-1H-benzo[d]imidazol-1-yl)bicyclo[3.1.0]hexan-6-yl)propyl)-3-fluorobenzamide] | < 200
4 | CCC(NC(=O)c1ccc(Cl)cc1)[C@H]1[C@@H]2C[C@@H](NC(=O)c3cccnn3)C[C@@H]21 (stereo partly drawn) [Compound 151, N-((1R,3s,5S,6r)-6-(1-(4-chlorobenzamido)propyl)bicyclo[3.1.0]hexan-3-yl)pyridazine-3-carboxamide] | < 200
5 | CCC(NC(=O)c1ccc(Cl)cc1)[C@H]1[C@@H]2C[C@@H](n3cnnc3C3CC3)C[C@@H]21 (stereo partly drawn) [Compound 172, 4-chloro-N-(1-((1R,3s, 5S, 6r)-3-(3-cyclopropyl-4H-1,2,4-triazol-4-yl)bicyclo[3.1.0]hexan-6-yl)propyl)benzamide] | 200 to 2000
6 | O=C(NCc1ccc(Cl)cc1)C1[C@H]2CC(Oc3ccnc4ccccc34)C[C@@H]12 (stereo partly drawn) [Compound 16, (1R,5S)-N-(4-chlorobenzyl)-3-(quinolin-4-yloxy)bicyclo[3.1.0]hexane-6-carboxamide] | > 5000
7 | CC(C(=O)Nc1ccc(Cl)c(F)c1)[C@H]1[C@@H]2C[C@@H](n3cnc4cc(F)c(F)cc43)C[C@@H]21 (stereo partly drawn) [Compound 345, N-(4-chloro-3-fluorophenyl)-2-((1R,3s,5S,6r)-3-(5,6-difluoro-1H-benzo[d]imidazol-1-yl)bicyclo[3.1.0]hexan-6-yl)propanamide] | < 200
8 | C=C(C)c1cn([C@@H]2C[C@@H]3[C@H](C2)[C@H]3C(CC)NC(=O)c2ccc(Cl)cc2)nn1 (stereo partly drawn) [Compound 147, 4-chloro-N-(1-((1R,3s,5S,6r)-3-(4-(prop-1-en-2-yl)-1H-1,2,3-triazol-1-yl)bicyclo[3.1.0]hexan-6-yl)propyl)benzamide] | < 200
9 | COc1ccc(C(=O)NC(C)[C@H]2[C@@H]3C[C@@H](Oc4ncnc5cc(F)ccc45)C[C@@H]32)cn1 (stereo partly drawn) [Compound 124, N-(1-((1R,3s,5S,6r)-3-((7-fluoroquinazolin-4-yl)oxy)bicyclo[3.1.0]hexan-6-yl)ethyl)-6-methoxynicotinamide] | < 200
10 | CN(C(=O)Cc1ccc(Cl)cc1)[C@H]1[C@@H]2C[C@@H](Oc3cnnc4ccccc34)C[C@@H]21 [Compound 86, 2-(4-chlorophenyl)-N-((1R,3s,5S,6r)-3-(cinnolin-4-yloxy)bicyclo[3.1.0]hexan-6-yl)-N-methylacetamide] | 2000 to 5000
11 | O=C(NCc1ccc(Cl)cc1)C1[C@H]2CC(Oc3cc(C(F)(F)F)nc4ccc(F)cc34)C[C@@H]12 (stereo partly drawn) [Compound 17, (1R,5S)-N-(4-chlorobenzyl)-3-((6-fluoro-2-(trifluoromethyl)quinolin-4-yl)oxy)bicyclo[3.1.0]hexane-6-carboxamide] | > 5000
12 | C[C@@H](NC(=O)c1ccc(C#N)cc1)[C@H]1[C@@H]2C[C@@H](O)C[C@@H]21 [Compound 297, 4-cyano-N-((R)-1-((1R,3S,5S,6r)-3-hydroxybicyclo[3.1.0]hexan-6-yl)ethyl)benzamide] | > 5000
13 | CCC(NC(=O)c1ccc(Cl)cc1)[C@H]1[C@@H]2C[C@@H](N3C(=O)CC(C)(C)C3=O)C[C@@H]21 (stereo partly drawn) [Compound 122, 4-chloro-N-(1-((1R,3s,5S,6r)-3-(3,3-dimethyl-2,5-dioxopyrrolidin-1-yl)bicyclo[3.1.0]hexan-6-yl)propyl)benzamide] | 2000 to 5000
14 | CC[C@@H](NC(=O)c1ccc(Cl)cc1)[C@H]1[C@@H]2C[C@@H](n3cc(I)cn3)C[C@@H]21 [Compound 304, 4-chloro-N-((R)-1-((1R,3S,5S,6r)-3-(4-iodo-1H-pyrazol-1-yl)bicyclo[3.1.0]hexan-6-yl)propyl)benzamide] | < 200
15 | CC(NC(=O)c1ccc(C#N)cc1)C1[C@H]2CC(Oc3ncnc4ccc(F)cc34)C[C@@H]12 (stereo partly drawn) [Compound 107, 4-cyano-N-(1-((1R,3s,5S,6r)-3-((6-fluoroquinazolin-4-yl)oxy)bicyclo[3.1.0]hexan-6-yl)ethyl)benzamide] | < 200
16 | CCC(NC(=O)c1ccc(Cl)cc1)[C@H]1[C@@H]2C[C@@H](n3ncc4cnccc43)C[C@@H]21 (stereo partly drawn) [Compound 51, N-(1-((1R,3s,5S,6r)-3-(1H-pyrazolo[4,3-c]pyridin-1-yl)bicyclo[3.1.0]hexan-6-yl)propyl)-4-chlorobenzamide] | < 200
17 | CC(C)(NC(=O)c1ccc(C#N)cc1)C1[C@H]2CC(n3ncc(=O)c4ccccc43)C[C@@H]12 (stereo partly drawn) [Compound 87, 4-cyano-N-(2-((1R,5S)-3-(4-oxocinnolin-1(4H)-yl)bicyclo[3.1.0]hexan-6-yl)propan-2-yl)benzamide] | < 200
18 | O=C(Cc1ncc(Cl)cc1F)NC1C2CN(c3ccnc4ccc(F)cc34)CC21 (stereo not drawn) [Compound 112, 2-(5-chloro-3-fluoropyridin-2-yl)-N-(3-(6-fluoroquinolin-4-yl)-3-azabicyclo[3.1.0]hexan-6-yl)acetamide] | > 5000
19 | CC(C(=O)Nc1ccc(Cl)cc1)[C@H]1[C@@H]2C[C@@H](Oc3ncnc4ccc(F)cc34)C[C@@H]21 (stereo partly drawn) [Compound 339, N-(4-chlorophenyl)-2-((1R,3s,5S,6r)-3-((6-fluoroquinazolin-4-yl)oxy)bicyclo[3.1.0]hexan-6-yl)propanamide] | < 200

Next, values leading:

Row | IC50 [nM] | SMILES
20 | < 200 | CC[C@@H](NC(=O)c1ccc(Cl)cc1)[C@H]1[C@@H]2C[C@@H](n3cccn3)C[C@@H]21 [Compound 324, N-((R)-1-((1R,3S,5S,6r)-3-(1H-pyrazol-1-yl)bicyclo[3.1.0]hexan-6-yl)propyl)-4-chlorobenzamide]
21 | < 200 | CCC(NC(=O)c1ccc(Cl)cc1)[C@H]1[C@@H]2C[C@@H](Nc3ncnc4ccc(F)cc34)C[C@@H]21 (stereo partly drawn) [Compound 123, 4-chloro-N-(1-((1R,3s,5S,6r)-3-((6-fluoroquinazolin-4-yl)amino)bicyclo[3.1.0]hexan-6-yl)propyl)benzamide]
22 | < 200 | CCC(NC(=O)c1ccc(Cl)cc1)[C@H]1[C@@H]2C[C@@H](n3nnc4ccccc43)C[C@@H]21 (stereo partly drawn) [Compound 99, N-(1-((1R,3s,5S,6r)-3-(1H-benzo[d][1,2,3]triazol-1-yl)bicyclo[3.1.0]hexan-6-yl)propyl)-4-chlorobenzamide]
23 | < 200 | CCC(NC(=O)c1ccc(Cl)cc1)[C@H]1[C@@H]2C[C@@H](Oc3ccccc3CC(N)=O)C[C@@H]21 (stereo partly drawn) [Compound 45, N-(1-((1R,3s,5S,6r)-3-(2-(2-amino-2-oxoethyl)phenoxy)bicyclo[3.1.0]hexan-6-yl)propyl)-4-chlorobenzamide]
24 | < 200 | CCC(NC(=O)c1ccc(Cl)cc1)[C@H]1[C@@H]2C[C@@H](Oc3cccnc3Cl)C[C@@H]21 (stereo partly drawn) [Compound 60, 4-chloro-N-(1-((1R,3s,5S,6r)-3-((2-chloropyridin-3-yl)oxy)bicyclo[3.1.0]hexan-6-yl)propyl)benzamide]
25 | < 200 | CC(NC(=O)c1ccc(Cl)cc1)[C@H]1[C@@H]2C[C@@H](Oc3ncnc4cc(F)ccc34)C[C@@H]21 (stereo partly drawn) [Compound 70, 4-chloro-N-(1-((1R,3s,5S,6r)-3-((7-fluoroquinazolin-4-yl)oxy)bicyclo[3.1.0]hexan-6-yl)ethyl)benzamide]
26 | < 200 | CC[C@@H](NC(=O)c1ccc(Cl)cc1)[C@H]1[C@@H]2C[C@@H](Nc3ncnc4ccc(C)cc34)C[C@@H]21 [Compound 338, 4-chloro-N-((R)-1-((1R,3S,5S,6r)-3-((6-methylquinazolin-4-yl)amino)bicyclo[3.1.0]hexan-6-yl)propyl)benzamide]
27 | < 200 | CCC(NC(=O)c1ccc(Cl)cc1)[C@H]1[C@@H]2C[C@@H](Oc3cccc4cccnc34)C[C@@H]21 (stereo partly drawn) [Compound 43, 4-chloro-N-(1-((1R,3s,5S,6r)-3-(quinolin-8-yloxy)bicyclo[3.1.0]hexan-6-yl)propyl)benzamide]
28 | < 200 | CCC(NC(=O)c1ccc(Cl)cc1)[C@H]1[C@@H]2C[C@@H](n3cnc4ccc(F)cc4c3=O)C[C@@H]21 (stereo partly drawn) [Compound 6, 4-chloro-N-(1-((1R,3s,5S,6r)-3-(6-fluoro-4-oxoquinazolin-3(4H)-yl)bicyclo[3.1.0]hexan-6-yl)propyl)benzamide]
29 | < 200 | C#Cc1ccc2ncnc(N[C@@H]3C[C@@H]4[C@H](C3)[C@H]4[C@@H](CC)NC(=O)c3ccc(Cl)cc3)c2c1 [Compound 337, 4-chloro-N-((R)-1-((1R,3S,5S,6r)-3-((6-ethynylquinazolin-4-yl)amino)bicyclo[3.1.0]hexan-6-yl)propyl)benzamide]
30 | 200 to 2000 | CCC(NC(=O)c1ccc(Cl)cc1)[C@H]1[C@@H]2C[C@@H](Oc3ccc4c(Cl)ccnc4c3)C[C@@H]21 (stereo partly drawn) [Compound 57, 4-chloro-N-(1-((1R,3s,5S,6r)-3-((4-chloroquinolin-7-yl)oxy)bicyclo[3.1.0]hexan-6-yl)propyl)benzamide]
